From patent US7282589B2, “Acid addition salt of optically active piperidine compound and process for preparing the same” (UBE Industries, Ltd., priority 1996, dated 2007)
Where two headings read alike, the source gives them in different places.

Legend:
[1] = test system: 7 days homologous PCA reaction; assay: Inhibitory effect on 7 days homologous PCA reaction; type: in vivo, Hartley male guinea pigs; conditions: for Inhibitory ratio (%): p.o., 2 hours before antigen
Experimental: By using Hartley male guinea pigs with a body weight of 250 to 550 g, inhibitory effect on PCA reaction was tested according to the method of Levine et al. (Journal of Immunology, vol. 106, p. 29, 1971 (B. B. Levine, H. Chang, Jr., and N. M. Vaz, J. Immunol. 106, 29 (1971))). 0.05 ml of guinea pig anti-BPO.BGG-IgE serum diluted 32-fold with a physiological saline was hypodermically administrated to the guinea pig through two points of right and left sandwiching the median line of the back which had been shaved one day before.
After 7 days, 1 ml of a 1% Evans Blue physiological saline solution containing 500 μg of benzylpenicilloyl bovine serum albumin (BPO.BSA) was intravenously administrated to induce a PCA reaction. Thirty minutes later, exsanguination was carried out, and the skin was peeled off and the amount of the leaked dye was measured according to the method of Katayama et al. (Microbiological Immunology, vol. 22, p. 89, 1978 (S. Katayama, H. Shinoya and S. Ohtake, Microbiol. Immunol., 22, 89 (1978))). The test animals were fasted overnight (about 16 hours) and the test substances were orally administrated 2 hours before the administration of the antigen.

[2] = test system: histamine-induced death; assay: Protective effects on histamine-induced death; type: in vivo, Hartley male guinea pigs; conditions: for Survival ratio (%): p.o., 2 hours before 1.25 mg/kg histamine hydrochloride i.v.; for ED50: Cavia porcellus, po, obtained from the dose-response curve of Table 1
Experimental: By using Hartley male guinea pigs with a body weight of 250 to 550 g, protective effects on histamine-induced death were tested according to the method of Lands et al. (Journal of Pharmacological Experimental Therapy, vol. 95, p. 45, 1949 (A. M. Lands, J. O. Hoppe, O. H. Siegmund, and F. F. Luduena, J. Pharmacol. Exp. Ther., 95, 45 (1949))). Test animals were fasted overnight (about 14 hours), and then 5 ml/kg of a test substance was orally administrated. Two hours after administration of the test substance, 1.25 mg/kg of histamine hydrochloride was intravenously administrated to induce histamine shock. After induction, symptom of the test animals was observed and the histamine-shock appearing time was measured, and termination of respiration or restoration was also observed.

[3] = Stability test (40° C. and 75% relative humidity, one month); type: physicochemical; conditions: for physicochemical stability (conclusion in words): from the test results of Table 4
Experimental: After pulverizing the above-mentioned respective compounds, powder passed through a 500 μm sieve was made to be a test sample. Respective samples were divided and placed in glass Petri dishes and preserved at 40° C. and 75% relative humidity. One month later, the samples were taken out, and a weight of contained analogues and a content of (R)-isomer by racemization were measured and compared with those at the beginning of the test.
The sample was dissolved in a mobile phase and the solution was adjusted so as to contain about 0.1% of the sample per ml. With regard to 25 μl of the sample solution, percentages of the respective peak area were measured by a liquid chromatography using an automatic integration method.
About 5 mg of the sample was dissolved in the mobile phase and the solution was adjusted so as to contain about 0.1% of the sample per ml. With regard to 1.5 μl of the sample solution, percentages of the respective peak area were measured by a liquid chromatography using an automatic integration method, and an amount of the (R)-isomer (%) was calculated by the following equation.
[formula] • Q^S: percentage of peak area of (S)-isomer • Q^R: percentage of peak area of (R)-isomer Operation Conditions

[4] = Experiment 1: crystallization of acid addition salts of (S)-piperidine compound (I); type: physicochemical
Experimental: (S)-Piperidine compound of the formula (I) was dissolved in an organic solvent, and after adding an acid shown in Table 3 to make a uniform solution, the mixture was allowed to stand. When no precipitate is obtained, after the solvent was removed, a less polar solvent was added to the residue and the mixture was allowed to stand again. Except for the case where the acid addition salt is oily or syrupy, the obtained solid material was collected by filtration and dried under reduced pressure.

[5] = Pharmacological effects of the metabolite compared with the (S)-ester
[6] = 1 month later, 40° C. and 75% relative humidity

CCOC(=O)CCCN1CCC(O[C@H](c2ccc(Cl)cc2)c2ccccn2)CC1.O=C(O)/C=C/C(=O)O [(R)-ester, ethyl (R)-4-[4-[(4-chlorophenyl) (2-pyridyl)methoxy]piperidino]butanoate fumaric acid salt]
Inhibitory ratio (%) ([1]; 0.3 mg/kg): −3.1%
Inhibitory ratio (%) ([1]; 1.0 mg/kg): 13.6%
Inhibitory ratio (%) ([1]; 3.0 mg/kg): 45.8%
Inhibitory ratio (%) ([1]; 10.0 mg/kg): 59.5%
Survival ratio (%) ([2]; 0.3 mg/kg): 0%
Survival ratio (%) ([2]; 0.6 mg/kg): 0%
Survival ratio (%) ([2]; 1.0 mg/kg): 50.0%
Survival ratio (%) ([2]; 3.0 mg/kg): 62.5%
Survival ratio (%) ([2]; 10.0 mg/kg): 100%
ED50 [2]: 1 mg/kg

CCOC(=O)CCCN1CCC(O[C@@H](c2ccc(Cl)cc2)c2ccccn2)CC1.O=C(O)/C=C/C(=O)O [(S)-ester, ethyl (S)-4-[4-[(4-chlorophenyl)(2-pyridyl)methoxy]piperidino]butanoate fumaric acid salt]
Inhibitory ratio (%) ([1]; 0.01 mg/kg): 37.3%
Inhibitory ratio (%) ([1]; 0.02 mg/kg): 46.3%
Inhibitory ratio (%) ([1]; 0.03 mg/kg): 56.9%
Inhibitory ratio (%) ([1]; 0.06 mg/kg): 63.4%
Inhibitory ratio (%) ([1]; 0.1 mg/kg): 58.8%
potency relative to the (R)-ester ([1]; compared at the dose which inhibits 50% of the maximum value (i.e., 35%)): ≥ 100 fold
Amount of moisture absorption [3, 6]: 0.45%
Content of (R)-isomer [3, 6]: 1.15%
Content of analogue substance [3, 6]: 2.65%
Content of (R)-isomer ([3]; Beginning): 0.87%
Content of analogue substance ([3]; Beginning): 1.72%
hygroscopicity (in words) ([3]; as shown in the stability test results (Table 4)): hygroscopic
physicochemical stability (conclusion in words) [3]: physicochemically unstable
Survival ratio (%) ([2]; 0.01 mg/kg): 0%
Survival ratio (%) ([2]; 0.02 mg/kg): 42.9%
Survival ratio (%) ([2]; 0.03 mg/kg): 62.5%
Survival ratio (%) ([2]; 0.06 mg/kg): 100%
Survival ratio (%) ([2]; 0.1 mg/kg): 100%
ED50 [2]: 0.023 mg/kg
potency relative to the (R)-ester ([2]; ratio of ED50 values): about 43 fold

O=C(O)CCCN1CCC(O[C@@H](c2ccc(Cl)cc2)c2ccccn2)CC1.O=S(=O)(O)c1ccccc1 [Benzenesulfonic acid salt, (S)-4-[4-[(4-chlorophenyl)(2-pyridyl)-methoxy]piperidino]butanoic acid monobenzenesulfonic acid salt]
Characteristics of acid addition salt [4]: non-hygroscopic crystals
Amount of moisture absorption [3, 6]: 0.18%
Content of (R)-isomer [3, 6]: 0.39%
Content of analogue substance [3, 6]: 0.16%
Content of (R)-isomer ([3]; Beginning): 0.37%
Content of analogue substance ([3]; Beginning): 0.15%
physicochemical stability (conclusion in words) [3]: excellent physicochemical stabilities

O=C(O)CCCN1CCC(O[C@@H](c2ccc(Cl)cc2)c2ccccn2)CC1.O=C(O)c1ccccc1 [Benzoic acid salt, (S)-4-[4-[(4-chlorophenyl)(2-pyridyl)-methoxy]piperidino]butanoic acid monobenzoic acid salt]
Characteristics of acid addition salt [4]: non-hygroscopic crystals
Amount of moisture absorption [3, 6]: 0.05%
Content of (R)-isomer [3, 6]: 0.40%
Content of analogue substance [3, 6]: 1.20%
Content of (R)-isomer ([3]; Beginning): 0.37%
Content of analogue substance ([3]; Beginning): 1.20%
physicochemical stability (conclusion in words) [3]: excellent physicochemical stabilities

O=C(O)CCCN1CCC(O[C@@H](c2ccc(Cl)cc2)c2ccccn2)CC1 [Example 1, (S)-4-[4-[(4-chlorophenyl)(2-pyridyl)-methoxy]piperidino]butanoic acid]
pharmacological effects compared with the (S)-ester [5]: substantially shows the same pharmacological effects as the (S)-ester

C[C@H](O)C(=O)O [L-Lactic acid]
Characteristics of acid addition salt ([4]; acid molar ratio 1): Oily product
